Source: patent US10864178B2, “Pharmaceutical composition for treatment of cancer containing polyphenol compound as active ingredient” (priority 2016, dated 2020)
pIC50: −log10 of the molar value.

What was measured:
[1] = test system: SNU668; experiment: Proliferation inhibition, sulforhodamine B assay; format: cell-based; conditions: Homo sapiens, 48 hours treatment
Experimental: (§1) In order to examine the proliferation inhibitory effects of gossypol against stomach cancer cell lines, 6 different stomach cancer cell lines (MKN28, MKN45, AGS, SNU668, Kato3 and HS746T) were prepared. The definition of cell lines known in the Korean Cell Line Bank or the American Type Culture Collection (ATCC) is described in Table 1 below.
(§2) Each of the 6 different cell lines (1×10^3 to 1×10^4 cells/well) was cultured in a 96-well plate for 24 hours, and treated with 0, 10, 20, 40 or 60 μM of gossypol, and then further cultured for 48 hours.

[2] = test system: MKN45; experiment: Proliferation inhibition, sulforhodamine B assay; format: cell-based; conditions: Homo sapiens, MKN-45, 48 hours treatment
Experimental: as §1, §2

[3] = test system: AGS; experiment: Proliferation inhibition, sulforhodamine B assay; format: cell-based; conditions: Homo sapiens, 48 hours treatment
Experimental: as §1, §2

[4] = test system: Kato3; experiment: Proliferation inhibition, sulforhodamine B assay; format: cell-based; conditions: Homo sapiens, 48 hours treatment
Experimental: as §1, §2

[5] = test system: MKN28; experiment: Proliferation inhibition, sulforhodamine B assay; format: cell-based; conditions: Homo sapiens, MKN-28, 48 hours treatment
Experimental: as §1, §2

[6] = test system: HS746T; experiment: Proliferation inhibition, sulforhodamine B assay; format: cell-based; conditions: Homo sapiens, 48 hours treatment
Experimental: as §1, §2

[7] = test system: PAGS (parental AGS); experiment: Proliferation inhibition, parental AGS cells; format: cell-based; conditions: Homo sapiens, read-out: IC50 concentration
Experimental: (§3) First, in order to examine the growth inhibitory effect of gossypol against stomach cancer stem cells, two types of common stomach cancer cells (AGS and MKN-74) and two types of stomach cancer stem cells (MKN-1 and SNU-484) were prepared. Each type of cells was cultured in a 96-well plate at a density of 1×10^3 to 1×10^4 cells/well for 24 hours, and treated with 0, 10, 20, 40 or 60 μM of gossypol, and then further cultured for 48 hours. […] Based on the measured absorbance, the IC50 concentration of gossypol, at which the survival rate of each type of cells, is measured, and the results are shown in FIGS. 6 and 7.
(§4) On selected AGS cells (hereinafter referred to as SAGS (selected AGS), Cell Death Dis. 2015 Jul. 2; 6:e1805) selected from the common stomach cancer cell line AGS (hereinafter referred to as PAGS (parental AGS)) by analyzing phenotypes, including the cancer stem cell marker expression, tumor spheroid formation and standard anticancer agent resistance of cancer cells that survived under 4 weeks of continuous metabolic stress, and tumor formation in immunosuppressed mice, the growth inhibitory effects of gossypol were examined. Cell culture and survival rate measurement methods were performed in the same manner as Example 2-1.

[8] = test system: SNU-484; experiment: Proliferation inhibition of stomach cancer stem cells, sulforhodamine B assay; format: cell-based; conditions: SNU-484 stomach cancer stem cells; 48 hours; read-out: IC50 concentration
Experimental: as §3

[9] = test system: MKN-1; experiment: as above; format: cell-based; conditions: Homo sapiens; MKN-1 stomach cancer stem cells; 48 hours; read-out: IC50 concentration
Experimental: as §3

[10] = test system: MKN45 (poorly differentiated cells); experiment: Cell death, Annexin V+PI staining, FACS; format: cell-based, Human
Experimental: (§5) Each of MKN28 (moderately differentiated cells) and MKN45 (poorly differentiated cells) cell lines (1×10^3 to 1×10^4 cells/plate), described in Example 1-1 above, was cultured in a 100 mm culture dish for 24 hours, and treated with 0, 5, 10 or 20 μM of gossypol, and then diluted in 400 μl of binding buffer (0.1 M Hepes, pH 7.4, 1.4 M NaCl, and 25 mM CaCl2)). The control cells treated with 0 μM of gossypol were divided into four groups which were not stained, stained with Annexin V, stained with PI (propidium iodide) and stained with Annexin V+PI, respectively, and the cells treated with 5, 10 or 20 μM of gossypol were stained with Annexin V+PI. Staining of the cells was performed in a dark room for 10 minutes. The stained cells were subjected to fluorescence activated cell sorting (FACS), thereby determining the ratio of dead cells to total cells. The results are shown in FIGS. 3 and 4 (BD Biosciences, #556547).

[11] = test system: MKN28 (moderately differentiated cells); experiment: Cell death, Annexin V+PI staining, FACS; format: cell-based, Human
Experimental: as §5

[12] = test system: SAGS (selected AGS); experiment: Proliferation inhibition, selected AGS cells with the nature of cancer stem cells; format: cell-based; conditions: Homo sapiens, read-out: IC50 concentration
Experimental: as §3, §4

[13] = test system: stomach cancer stem cells (MKN-1 and SNU-484); experiment: Proliferation inhibition, average over stomach cancer stem cells; format: cell-based; conditions: average of MKN-1 and SNU-484; read-out: IC50 concentration, average
Experimental: as §3

[14] = test system: common stomach cancer cells (MKN-74 and AGS); experiment: Proliferation inhibition, average over common stomach cancer cells; format: cell-based; conditions: Homo sapiens; average of MKN-74 and AGS; read-out: IC50 concentration, average
Experimental: as §3

[15] = test system: MKN45; experiment: Cell cycle analysis, PI staining, FACS; format: cell-based, Human; conditions: 10 μM gossypol, 24 hours
Experimental: (§6) Each of the 6 different stomach cancer cells lines (MKN28, MKN45, AGS, SNU668, Kato3 and HS746T) (1×10^3 to 1×10^4 cells/well), described in Example 1-1 above, was cultured in a 100 mm culture dish for 24 hours, and treated with 0 or 10 μM of gossypol, and then further cultured for 24 hours. The cells treated with gossypol were harvested, fixed with 70% ethanol, washed with cold 1×PBS, and then stained with PI+RNase solution (DPBS, pH 7.4) in a dark room for 30 minutes. The cells were subjected to fluorescence activated cell sorting (FACS), and the percentage of each cell cycle was analyzed based on the content of DNA.

[16] = test system: AGS; experiment: Cell cycle analysis, PI staining, FACS; format: cell-based, Human; conditions: 10 μM gossypol, 24 hours
Experimental: as §6

[17] = test system: MKN28; experiment: Cell cycle analysis, PI staining, FACS; format: cell-based, Human; conditions: 10 μM gossypol, 24 hours
Experimental: as §6

[18] = test system: HS746T; experiment: Cell cycle analysis, PI staining, FACS; format: cell-based, Human; conditions: 10 μM gossypol, 24 hours
Experimental: as §6

[19] = test system: stomach cancer cell lines (MKN28, MKN45 and SNU668); experiment: ATP synthesis inhibition (Promega ATP assay kit); format: cell-based, Human; conditions: 0, 10 or 20 μM of gossypol, 48 hours
Experimental: ATP (adenosine triphosphate) is an energy source for organisms, and inhibition of intracellular ATP synthesis leads to a decrease in energy metabolism activity. The ATP synthesis inhibitory effects of gossypol on the stomach cancer cell lines (MKN28, MKN45 and SNU668) described in Example 1-1 were examined.
Each of MKN28, MKN45 and SNU668 cell lines (1×10^3 to 1×10^4 cells/plate) was cultured in a 60 mm culture dish for 24 hours, treated with 0, 10 or 20 μM of gossypol, and then additionally cultured for 48 hours. Next, the cells were harvested, counted, diluted in 100 μl of RPMI buffer containing 10 vol % FBS, and then transferred to each well of 96-well plate. To each well containing the cells, 100 μl of assay buffer (rL/L reagent+reconstitution buffer) in the Promega ATP assay kit (G7572, Promega, […]., USA) was added, after which the emission of fluorescence was determined by measuring the absorbance at 560 nm.

[20] = test system: AGS; experiment: Proliferation inhibition of common stomach cancer cells, sulforhodamine B assay; format: cell-based; conditions: Homo sapiens, 48 hours, read-out: IC50 concentration
Experimental: as §3

[21] = test system: MKN-74; experiment: as above; format: cell-based; conditions: Homo sapiens; MKN-74 common stomach cancer cells; 48 hours; read-out: IC50 concentration
Experimental: as §3

SMILES: Cc1cc2c(C(C)C)c(O)c(O)c(C=O)c2c(O)c1-c1c(C)cc2c(C(C)C)c(O)c(O)c(C=O)c2c1O [gossypol]
- GI50 [1]: 4.11 µM
- GI50 [2]: 4.65 µM
- GI50 [3]: 6.43 µM
- GI50 [4]: 3.15 µM
- GI50 [5]: 5.32 µM
- GI50 [6]: 9.89 µM
- pIC50 [7]: 5.38
- pIC50 [8]: 5.57
- pIC50 [9]: 5.59
- cell death percentage ([10]; 5 μM gossypol): 45.75%
- cell death percentage ([10]; 10 μM gossypol): 65.8%
- cell death percentage ([10]; 20 μM gossypol): 82.22%
- cell death percentage ([11]; 5 μM gossypol): 17.72%
- cell death percentage ([11]; 10 μM gossypol): 28.85%
- cell death percentage ([11]; 20 μM gossypol): 55.62%
- pIC50 [12]: 5.55
- pIC50 [13]: 5.58
- pIC50 [14]: 5.30
- sum of sub G1 and GO/G1 compared to before treatment [15]: increased
- sum of sub G1 and GO/G1 compared to before treatment [16]: increased
- sum of sub G1 and GO/G1 compared to before treatment [17]: decreased
- sum of sub G1 and GO/G1 compared to before treatment [18]: increased
- ATP synthesis [19]: inhibited in proportion to the concentration of gossypol
- pIC50 [20]: 5.35
- pIC50 [21]: 5.25
